Data from patent publication US11479551B2, “MTA-cooperative PRMT5 inhibitors” (Mirati Therapeutics, Inc., priority 2019, dated 2022).

Tests used:
PRMT5/MEP50 complex [1] = molecular target: T1, PRMT5/MEP50 complex (Homo sapiens (Human), UniProt O14744); experiment: PRMT5:MEP50 HotSpot Assay (full-length histone H2A substrate, plus and minus MTA); assay type: biochemical
Experimental: (§1) The PRMT5 inhibitory activity of compounds of the present invention was determined using either a PRMT5:MEP50 FlashPlate Assay (Reaction Biology Corporation) or a PRMT5:MEP50 HotSpot Assay (Reaction Biology Corporation).
The assay uses recombinant full-length histone H2A as the PRMT5 substrate. […] The reaction was stopped and transferred to filter paper for detection. The amount of tritiated H2A in each sample was determined using a scintillation counter.

PRMT5/MEP50 complex [2] = molecular target: T1, PRMT5/MEP50 complex; experiment: PRMT5:MEP50 FlashPlate Assay (histone H4 peptide substrate, plus and minus MTA); assay type: biochemical
Experimental: as §1
1. PRMT5:MEP50 FlashPlate Assay

[3] = IC50 + 2 μM MTA, in the presence of 2 μM MTA
[4] = IC50 + 2 μM MTA (nM), in the presence of 2 μM MTA
[5] = in the absence of MTA, read-out: IC50

T1 sequence (O14744 2-637): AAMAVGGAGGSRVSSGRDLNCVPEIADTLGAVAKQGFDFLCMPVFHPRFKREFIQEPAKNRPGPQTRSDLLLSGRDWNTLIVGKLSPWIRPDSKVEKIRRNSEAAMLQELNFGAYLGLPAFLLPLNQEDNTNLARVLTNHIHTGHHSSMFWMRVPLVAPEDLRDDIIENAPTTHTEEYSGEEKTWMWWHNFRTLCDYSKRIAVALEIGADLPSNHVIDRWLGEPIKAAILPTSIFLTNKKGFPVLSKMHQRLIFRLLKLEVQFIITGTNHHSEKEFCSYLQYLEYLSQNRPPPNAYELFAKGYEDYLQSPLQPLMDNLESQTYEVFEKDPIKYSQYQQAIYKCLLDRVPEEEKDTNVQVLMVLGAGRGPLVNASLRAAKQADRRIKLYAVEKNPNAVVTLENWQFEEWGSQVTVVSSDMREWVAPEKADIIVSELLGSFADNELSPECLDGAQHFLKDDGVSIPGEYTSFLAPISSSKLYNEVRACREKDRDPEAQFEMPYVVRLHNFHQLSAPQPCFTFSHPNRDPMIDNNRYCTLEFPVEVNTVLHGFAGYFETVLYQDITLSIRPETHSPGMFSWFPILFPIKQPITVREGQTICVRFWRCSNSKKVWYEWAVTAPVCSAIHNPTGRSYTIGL
T1 sequence (Q9BQA1 2-342 partner): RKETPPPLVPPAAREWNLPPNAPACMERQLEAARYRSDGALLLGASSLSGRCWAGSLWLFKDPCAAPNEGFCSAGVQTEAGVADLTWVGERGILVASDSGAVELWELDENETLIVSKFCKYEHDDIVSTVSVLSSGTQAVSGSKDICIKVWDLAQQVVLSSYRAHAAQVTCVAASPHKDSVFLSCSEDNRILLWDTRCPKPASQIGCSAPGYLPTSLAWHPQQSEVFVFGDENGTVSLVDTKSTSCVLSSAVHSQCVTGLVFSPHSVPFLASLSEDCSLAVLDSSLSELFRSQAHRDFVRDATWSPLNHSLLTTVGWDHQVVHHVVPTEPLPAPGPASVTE

Row | Compound | IC50 (PRMT5/MEP50 complex [1]; [3]) [nM] | IC50 (PRMT5/MEP50 complex [2]; [4]) [nM] | IC50 (PRMT5/MEP50 complex [2]; [5]) [nM] | IC50 (PRMT5/MEP50 complex [1]; [5]) [nM]
1 | CCOc1ccc2ncc(-c3ccc4c(=O)[nH]nc(CN)c4c3)n2c1 [Example 4-36, 4-(aminomethyl)-6-(6-ethoxyimidazo[1,2-a]pyridin-3-yl)phthalazin-1(2H)-one] | 2800 | 13 | 541 | –
2 | Cc1c[nH]c2ncc(-c3ccc4c(=O)[nH]nc(CN)c4c3)cc12 [Example 4-40, 4-(aminomethyl)-6-(3-methyl-1H-pyrrolo[2,3-b]pyridin-5-yl)phthalazin-1(2H)-one] | 3170 | 10 | 276 | –
3 | NCc1n[nH]c(=O)c2ccc(-c3cnc4[nH]cc(Cl)c4c3)cc12 [Example 4-44, 4-(aminomethyl)-6-(3-chloro-1H-pyrrolo[2,3-b]pyridin-5-yl)phthalazin-1(2H)-one] | 6830 | 5.4 | 691 | > 10000
4 | CCc1c[nH]c2ncc(-c3ccc4c(=O)[nH]nc(CN)c4c3)cc12 [Example 4-45, 4-(aminomethyl)-6-(3-ethyl-1H-pyrrolo[2,3-b]pyridin-5-yl)phthalazin-1(2H)-one] | 2790 | 16 | 291 | –
5 | Cc1ccc(Oc2cncc(-c3ccc4c(=O)[nH]nc(CN)c4c3)c2)c(C)c1 [Example 4-73, 4-(aminomethyl)-6-(5-(2,4-dimethylphenoxy)pyridin-3-yl)phthalazin-1(2H)-one] | 933 | 0.6 | 24 | –
6 | COc1cc(Cl)cc(-c2c(-c3ccc4c(=O)[nH]nc(CN)c4c3)cnn2C)c1C#N [Example 4-168, 2-(4-(4-(aminomethyl)-1-oxo-1,2-dihydrophthalazin-6-yl)-1-methyl-1H-pyrazol-5-yl)-4-chloro-6-methoxybenzonitrile] | 1370 | – | – | –
7 | COc1ccc(-c2c(-c3ccc4c(=O)[nH]nc(CN)c4c3)cnn2C)c(C#N)c1Cl [Example 4-170, 6-(4-(4-(aminomethyl)-1-oxo-1,2-dihydrophthalazin-6-yl)-1-methyl-1H-pyrazol-5-yl)-2-chloro-3-methoxybenzonitrile] | 728 | – | – | –
8 | CCOc1ccc(-c2c(-c3ccc4c(=O)[nH]nc(CN)c4c3)cnn2C)c(C#N)c1 [Example 4-173, 2-(4-(4-(aminomethyl)-1-oxo-1,2-dihydrophthalazin-6-yl)-1-methyl-1H-pyrazol-5-yl)-5-ethoxybenzonitrile] | 1600 | – | – | –
9 | Cn1ncc(-c2ccc3c(=O)[nH]nc(CN)c3c2)c1-c1cccc(OC2CCC2)c1C#N [Example 4-177, 2-(4-(4-(aminomethyl)-1-oxo-1,2-dihydrophthalazin-6-yl)-1-methyl-1H-pyrazol-5-yl)-6-cyclobutoxybenzonitrile] | 5970 | – | – | –
10 | COc1ccc(-c2c(-c3ccc4c(=O)[nH]nc(CN)c4c3)cnn2C)c(C#N)c1C [Example 4-179, 6-(4-(4-(aminomethyl)-1-oxo-1,2-dihydrophthalazin-6-yl)-1-methyl-1H-pyrazol-5-yl)-3-methoxy-2-methylbenzonitrile] | 1240 | – | – | –
11 | NCc1n[nH]c(=O)c2ccc(-c3cncc(C4CCCOC4)c3)cc12 (stereo not shown) [Example 4-195, 4-(aminomethyl)-6-(5-(tetrahydro-2H-pyran-3-yl)pyridin-3-yl)phthalazin-1(2H)-one] | > 10000 | – | – | –
12 | N#Cc1ccc(C#N)c(-c2cncc(-c3ccc4c(=O)[nH]nc(CN)c4c3)c2)c1 [Example 8-9, 2-(5-(4-(aminomethyl)-1-oxo-1,2-dihydrophthalazin-6-yl)pyridin-3-yl)terephthalonitrile] | > 10000 | – | – | –
13 | NCc1n[nH]c(=O)c2ccc(-c3cncc(C4CCCCC4)c3)cc12 [Example 14-1, 4-(aminomethyl)-6-(5-cyclohexyl-3-pyridyl)-2H-phthalazin-1-one] | > 10000 | – | – | –

Further lines, results first:

Row | IC50 (PRMT5/MEP50 complex [1]; [3]) [nM] | IC50 (PRMT5/MEP50 complex [2]; [4]) [nM] | IC50 (PRMT5/MEP50 complex [2]; [5]) [nM] | IC50 (PRMT5/MEP50 complex [1]; [5]) [nM] | Compound
14 | 9690 | 6 | 193 | – | N#Cc1ccccc1-c1cncc(-c2ccc3c(=O)[nH]nc(CN)c3c2)c1 [Example 3-40, 2-(5-(4-(aminomethyl)-1-oxo-1,2-dihydrophthalazin-6-yl)pyridin-3-yl)benzonitrile]
15 | 3780 | 10 | 277 | > 10000 | NCc1n[nH]c(=O)c2ccc(-c3cncc(Oc4ccccc4)c3)cc12 [Example 3-50, 4-(aminomethyl)-6-(5-phenoxypyridin-3-yl)phthalazin-1(2H)-one]
16 | 1140 | 7.7 | 399 | > 10000 | NCc1n[nH]c(=O)c2ccc(-c3cnc4[nH]ccc4c3)cc12 [Example 3-59, 4-(aminomethyl)-6-(1H-pyrrolo[2,3-b]pyridin-5-yl)phthalazin-1(2H)-one]
17 | 8850 | 9.4 | 602 | – | COc1ccc2ncc(-c3ccc4c(=O)[nH]nc(CN)c4c3)n2c1 [Example 4-16, 4-(aminomethyl)-6-(6-methoxyimidazo[1,2-a]pyridin-3-yl)phthalazin-1(2H)-one]
18 | 2040 | 1.6 | 45 | > 10000 | Cn1ncc(-c2ccc3c(=O)[nH]nc(CN)c3c2)c1-c1ccccc1 [Example 4-32, 4-(aminomethyl)-6-(1-methyl-5-phenyl-1H-pyrazol-4-yl)phthalazin-1(2H)-one]
19 | 1510 | 5.8 | 530 | > 10000 | NCc1n[nH]c(=O)c2ccc(-c3cncc(C(O)c4ccccc4)c3)cc12 (stereo not shown) [Example 4-51, 4-(aminomethyl)-6-(5-(hydroxy(phenyl)methyl)pyridin-3-yl)phthalazin-1(2H)-one]
20 | 1050 | 4.9 | 116 | > 10000 | NCc1n[nH]c(=O)c2ccc(-c3cncc(Oc4ccccc4Cl)c3)cc12 [Example 4-71, 4-(aminomethyl)-6-(5-(2-chlorophenoxy)pyridin-3-yl)phthalazin-1(2H)-one]
21 | 2710 | 14 | 344 | – | NCc1n[nH]c(=O)c2ccc(-c3cnn4c3CN(c3ccccc3)CC4)cc12 [Example 4-83, 4-(aminomethyl)-6-(5-phenyl-4,5,6,7-tetrahydropyrazolo[1,5-a]pyrazin-3-yl)phthalazin-1(2H)-one]
22 | 845 | 3.3 | 85 | – | COc1cccc(-c2c(-c3ccc4c(=O)[nH]nc(CN)c4c3)cnn2C)c1 [Example 4-93, 4-(aminomethyl)-6-(5-(3-methoxyphenyl)-1-methyl-1H-pyrazol-4-yl)phthalazin-1(2H)-one]
23 | 868 | 3.9 | 116 | > 10000 | Cn1ncc(-c2ccc3c(=O)[nH]nc(CN)c3c2)c1-c1ccc(Cl)cc1 [Example 4-96, 4-(aminomethyl)-6-(5-(4-chlorophenyl)-1-methyl-1H-pyrazol-4-yl)phthalazin-1(2H)-one]
24 | 635 | 2.1 | 90 | – | COc1ccc(-c2c(-c3ccc4c(=O)[nH]nc(CN)c4c3)cnn2C)cc1 [Example 4-98, 4-(aminomethyl)-6-(5-(4-methoxyphenyl)-1-methyl-1H-pyrazol-4-yl)phthalazin-1(2H)-one]
25 | 6620 | – | – | – | Cn1ncc(-c2ccc3c(=O)[nH]nc(CN)c3c2)c1-c1cc2ncccc2cc1C#N [Example 4-167, 7-(4-(4-(aminomethyl)-1-oxo-1,2-dihydrophthalazin-6-yl)-1-methyl-1H-pyrazol-5-yl)quinoline-6-carbonitrile]
26 | 4440 | – | – | – | CN(C)c1c(-c2ccc3c(=O)[nH]nc(CN)c3c2)cnn1C [Example 4-171, 4-(aminomethyl)-6-(5-(dimethylamino)-1-methyl-1H-pyrazol-4-yl)phthalazin-1(2H)-one]
27 | > 10000 | – | – | – | Cn1ncc(-c2ccc3c(=O)[nH]nc(CN)c3c2)c1OCc1c(Cl)cccc1C#N [Example 4-174, 2-(((4-(4-(aminomethyl)-1-oxo-1,2-dihydrophthalazin-6-yl)-1-methyl-1H-pyrazol-5-yl)oxy)methyl)-3-chlorobenzonitrile]
28 | 1120 | – | – | – | Cn1ncc(-c2ccc3c(=O)[nH]nc(CN)c3c2)c1-c1cccc(OC2CC2)c1C#N [Example 4-175, 2-(4-(4-(aminomethyl)-1-oxo-1,2-dihydrophthalazin-6-yl)-1-methyl-1H-pyrazol-5-yl)-6-cyclopropoxybenzonitrile]
29 | 8710 | – | – | – | CC(C)Oc1cccc(-c2c(-c3ccc4c(=O)[nH]nc(CN)c4c3)cnn2C)c1C#N [Example 4-176, 2-(4-(4-(aminomethyl)-1-oxo-1,2-dihydrophthalazin-6-yl)-1-methyl-1H-pyrazol-5-yl)-6-isopropoxybenzonitrile]
30 | 4880 | – | – | – | CCCOc1cccc(-c2c(-c3ccc4c(=O)[nH]nc(CN)c4c3)cnn2C)c1C#N [Example 4-178, 2-(4-(4-(aminomethyl)-1-oxo-1,2-dihydrophthalazin-6-yl)-1-methyl-1H-pyrazol-5-yl)-6-propoxybenzonitrile]
31 | > 10000 | – | – | – | N#Cc1ccccc1-c1c(-c2ccc3c(=O)[nH]nc(CN)c3c2)cnn1CCO [Example 4-193, 2-(4-(4-(aminomethyl)-1-oxo-1,2-dihydrophthalazin-6-yl)-1-(2-hydroxyethyl)-1H-pyrazol-5-yl)benzonitrile]
